Test results reported in US20240358693A1, “METHODS OF TREATING PAIN” (Aisa Pharma, Inc., priority 2023, published 2024).

Test system: participants with SSc-RP
Assay: Scleroderma Health Assessment Questionnaire (SHAQ): disability indices and visual analog scales
Assay type: in vivo, human
Summary of the method: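 Participants with SSc-RP completed the SHAQ at screening and each in-clinic visit. Standard and alternative disability indices (eight categories, 0–3; standard adjusts for aids/assistance) plus Raynaud's VAS on interference over the past 7 days. Reported as absolute change from baseline to end of each dosing period.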

[1] = Baseline, Tadalafil 5 mg (N = 5), Patients with Diagnosis of SSc, PP Population Part A
[2] = Day 12, Modified ITT, Part A, dose Cilnidipine 10 mg, Tadalafil 5 mg, or 10 mg + 5 mg
[3] = Day 12, Tadalafil 5 mg (N = 5), Patients with Diagnosis of SSc, PP Population Part A
[4] = Day 12, mITT Part A, SSc patients, cilnidipine 10 mg and/or tadalafil 5 mg as in the arm
[5] = Day 12, mITT Part A, SSc patients, cilnidipine 10 mg and/or tadalafil 5 mg as in the arm, subject 01-110 score excluded
[6] = In-Clinic Visit (Day 12), Tadalafil 5 mg (N = 5), Patients with Diagnosis of SSc, PP Population Part A
[7] = Modified ITT, Part A, dose Cilnidipine 10 mg, Tadalafil 5 mg, or 10 mg + 5 mg

## CN1CC(=O)N2[C@H](c3ccc4c(c3)OCO4)c3[nH]c4ccccc4c3C[C@@H]2C1=O [Tadalafil, tadalafil]
[1]
  SHAQ Alternative Disability Index, Mean: 0.450
  SHAQ Alternative Disability Index, Median: 0.375
  SHAQ Standard Disability Index, Mean: 0.550
  SHAQ Standard Disability Index, Median: 0.500
[2]
  SHAQ Alternative Disability Index, Change from Baseline, Mean: −0.094
  SHAQ Alternative Disability Index, Change from Baseline, Median: −0.125
  SHAQ Alternative Disability Index, Percent Change from Baseline, Mean: −43.70%
  SHAQ Alternative Disability Index, Percent Change from Baseline, Median: −20.00%
  SHAQ Finger Ulcers, Change from Baseline, Mean: 0.250
  SHAQ Finger Ulcers, Change from Baseline, Median: 0.000
  SHAQ Finger Ulcers, Percent Change from Baseline, Mean: 6.10%
  SHAQ Finger Ulcers, Percent Change from Baseline, Median: 6.10%
  SHAQ Standard Disability Index, Change from Baseline, Mean: −0.063
  SHAQ Standard Disability Index, Change from Baseline, Median: −0.063
  SHAQ Standard Disability Index, Percent Change from Baseline, Mean: −9.26%
  SHAQ Standard Disability Index, Percent Change from Baseline, Median: −11.11%
  SHAQ Visual Analog Scale-Breathing Problems, Change from Baseline, Mean: 0.500
  SHAQ Visual Analog Scale-Breathing Problems, Change from Baseline, Median: 1.050
  SHAQ Visual Analog Scale-Breathing Problems, Percent Change from Baseline, Mean: −2.66%
  SHAQ Visual Analog Scale-Breathing Problems, Percent Change from Baseline, Median: 29.58%
  SHAQ Visual Analog Scale-Intestinal Problems, Change from Baseline, Mean: −0.125
  SHAQ Visual Analog Scale-Intestinal Problems, Change from Baseline, Median: 0.000
  SHAQ Visual Analog Scale-Intestinal Problems, Percent Change from Baseline, Mean: −6.92%
  SHAQ Visual Analog Scale-Intestinal Problems, Percent Change from Baseline, Median: 0.00%
  SHAQ Visual Analog Scale-Pain, Change from Baseline, Mean: 1.000
  SHAQ Visual Analog Scale-Pain, Change from Baseline, Median: 0.800
  SHAQ Visual Analog Scale-Pain, Percent Change from Baseline, Mean: 31.35%
  SHAQ Visual Analog Scale-Pain, Percent Change from Baseline, Median: 10.81%
  SHAQ Visual Analog Scale-Raynaud's, Change from Baseline, Mean: −0.825
  SHAQ Visual Analog Scale-Raynaud's, Change from Baseline, Median: −0.500
  SHAQ Visual Analog Scale-Raynaud's, Percent Change from Baseline, Mean: −19.71%
  SHAQ Visual Analog Scale-Raynaud's, Percent Change from Baseline, Median: −20.67%
[3]
  SHAQ Alternative Disability Index, Change from Baseline, Mean: −0.094
  SHAQ Alternative Disability Index, Change from Baseline, Median: −0.125
  SHAQ Alternative Disability Index, Percent Change from Baseline, Mean: −43.70%
  SHAQ Alternative Disability Index, Percent Change from Baseline, Median: −20.00%
  SHAQ Standard Disability Index, Change from Baseline, Mean: −0.063
  SHAQ Standard Disability Index, Change from Baseline, Median: −0.063
  SHAQ Standard Disability Index, Percent Change from Baseline, Mean: −9.26%
  SHAQ Standard Disability Index, Percent Change from Baseline, Median: −11.11%
[4]
  SHAQ Alternative Disability Index, Change from Baseline, Mean: −0.094
  SHAQ Alternative Disability Index, Change from Baseline, Median: −0.125
  SHAQ Alternative Disability Index, In-Clinic Visit (Day 12), Mean: 0.375
  SHAQ Alternative Disability Index, In-Clinic Visit (Day 12), Median: 0.250
  SHAQ Alternative Disability Index, Percent Change from Baseline, Mean: −43.70%
  SHAQ Alternative Disability Index, Percent Change from Baseline, Median: −20.00%
  SHAQ Visual Analogue Scale - Finger Ulcers, Change from Baseline, Mean: 0.250
  SHAQ Visual Analogue Scale - Finger Ulcers, Change from Baseline, Median: 0.000
  SHAQ Visual Analogue Scale - Finger Ulcers, In-Clinic Visit (Day 12), Mean: 2.325
  SHAQ Visual Analogue Scale - Finger Ulcers, In-Clinic Visit (Day 12), Median: 0.050
  SHAQ Visual Analogue Scale - Finger Ulcers, Percent Change from Baseline, Mean: 6.10%
  SHAQ Visual Analogue Scale - Finger Ulcers, Percent Change from Baseline, Median: 6.10%
  SHAQ Visual Analogue Scale - Intestinal Problems, Change from Baseline, Mean: −0.125
  SHAQ Visual Analogue Scale - Intestinal Problems, Change from Baseline, Median: 0.000
  SHAQ Visual Analogue Scale - Intestinal Problems, In-Clinic Visit (Day 12), Mean: 3.025
  SHAQ Visual Analogue Scale - Intestinal Problems, In-Clinic Visit (Day 12), Median: 1.450
  SHAQ Visual Analogue Scale - Intestinal Problems, Percent Change from Baseline, Mean: −6.92%
  SHAQ Visual Analogue Scale - Intestinal Problems, Percent Change from Baseline, Median: 0.00%
  SHAQ Visual Analogue Scale - Overall Disease Severity, Change from Baseline, Mean: 0.625
  SHAQ Visual Analogue Scale - Overall Disease Severity, Change from Baseline, Median: 0.700
  SHAQ Visual Analogue Scale - Overall Disease Severity, In-Clinic Visit (Day 12), Mean: 5.600
  SHAQ Visual Analogue Scale - Overall Disease Severity, In-Clinic Visit (Day 12), Median: 6.550
  SHAQ Visual Analogue Scale - Overall Disease Severity, Percent Change from Baseline, Mean: 32.49%
  SHAQ Visual Analogue Scale - Overall Disease Severity, Percent Change from Baseline, Median: 26.79%
  SHAQ Visual Analogue Scale - Pain, Change from Baseline, Mean: 1.000
  SHAQ Visual Analogue Scale - Pain, Change from Baseline, Median: 0.800
  SHAQ Visual Analogue Scale - Pain, In-Clinic Visit (Day 12), Mean: 5.300
  SHAQ Visual Analogue Scale - Pain, In-Clinic Visit (Day 12), Median: 5.850
  SHAQ Visual Analogue Scale - Pain, Percent Change from Baseline, Mean: 31.35%
  SHAQ Visual Analogue Scale - Pain, Percent Change from Baseline, Median: 10.81%
  SHAQ Visual Analogue Scale - Raynaud's, Change from Baseline, Mean: −0.825
  SHAQ Visual Analogue Scale - Raynaud's, Change from Baseline, Median: −0.500
  SHAQ Visual Analogue Scale - Raynaud's, In-Clinic Visit (Day 12), Mean: 4.950
  SHAQ Visual Analogue Scale - Raynaud's, In-Clinic Visit (Day 12), Median: 5.200
  SHAQ Visual Analogue Scale - Raynaud's, Percent Change from Baseline, Mean: −19.71%
  SHAQ Visual Analogue Scale - Raynaud's, Percent Change from Baseline, Median: −20.67%
[5]
  SHAQ Visual Analogue Scale - Breathing Problems, Change from Baseline, Mean: 0.500
  SHAQ Visual Analogue Scale - Breathing Problems, Change from Baseline, Median: 1.050
  SHAQ Visual Analogue Scale - Breathing Problems, In-Clinic Visit (Day 12), Mean: 4.300
  SHAQ Visual Analogue Scale - Breathing Problems, In-Clinic Visit (Day 12), Median: 4.000
  SHAQ Visual Analogue Scale - Breathing Problems, Percent Change from Baseline, Mean: −2.66%
  SHAQ Visual Analogue Scale - Breathing Problems, Percent Change from Baseline, Median: 29.58%
[6]
  SHAQ Alternative Disability Index, Mean: 0.375
  SHAQ Alternative Disability Index, Median: 0.250
  SHAQ Standard Disability Index, Mean: 0.531
  SHAQ Standard Disability Index, Median: 0.563
[7]
  SHAQ Finger Ulcers, Baseline, Mean: 2.075
  SHAQ Finger Ulcers, Baseline, Median: 0.050
  SHAQ Finger Ulcers, In Clinic Visit (Day 12), Mean: 2.325
  SHAQ Finger Ulcers, In Clinic Visit (Day 12), Median: 0.050
  SHAQ Standard disability index, Baseline, Mean: 0.594
  SHAQ Standard disability index, Baseline, Median: 0.625
  SHAQ Standard disability index, In Clinic Visit (Day 12), Mean: 0.531
  SHAQ Standard disability index, In Clinic Visit (Day 12), Median: 0.563
  SHAQ Visual Analog Scale-Breathing Problems, Baseline, Mean: 3.800
  SHAQ Visual Analog Scale-Breathing Problems, Baseline, Median: 4.050
  SHAQ Visual Analog Scale-Breathing Problems, In Clinic Visit (Day 12), Mean: 4.300
  SHAQ Visual Analog Scale-Breathing Problems, In Clinic Visit (Day 12), Median: 4.000
  SHAQ Visual Analog Scale-Intestinal Problems, Baseline, Mean: 3.150
  SHAQ Visual Analog Scale-Intestinal Problems, Baseline, Median: 2.600
  SHAQ Visual Analog Scale-Intestinal Problems, In Clinic Visit (Day 12), Mean: 3.025
  SHAQ Visual Analog Scale-Intestinal Problems, In Clinic Visit (Day 12), Median: 1.450
  SHAQ Visual Analog Scale-Pain, Baseline, Mean: 5.967
  SHAQ Visual Analog Scale-Pain, Baseline, Median: 7.400
  SHAQ Visual Analog Scale-Pain, In Clinic Visit (Day 12), Mean: 5.300
  SHAQ Visual Analog Scale-Pain, In Clinic Visit (Day 12), Median: 5.850
  SHAQ Visual Analog Scale-Raynaud's, Baseline, Mean: 5.775
  SHAQ Visual Analog Scale-Raynaud's, Baseline, Median: 6.400
  SHAQ Visual Analog Scale-Raynaud's, In Clinic Visit (Day 12), Mean: 4.950
  SHAQ Visual Analog Scale-Raynaud's, In Clinic Visit (Day 12), Median: 5.200
  SHAQ alternative disability index, Baseline, Mean: 0.469
  SHAQ alternative disability index, Baseline, Median: 0.375
